Key:
SK3 = SK3 (Homo sapiens, UniProt Q9UGI6); conditions: apamin: low concentration (1 nM); cited from earlier work
SK2 = SK2 (Homo sapiens, UniProt Q9H2S1); conditions: apamin: low concentration (1 nM); cited from earlier work
MDA-MB-435s cells [1] = format: cell-based, human; conditions: current-clamp, FIG. 2D
Experimental: D—Variations of membrane potential recorded in control conditions (PSS without drugs, n=11) and in presence of TEA (n=7), 4-AP (n=8) and TEA plus 4-AP (n=3). Membrane potential was measured in current-clamp mode (I=0) just after the disruption of the patch membrane.
(§2) Whole-cell potassium currents and intracellular Ca^2+ ([Ca^2+]i) measurements were recorded as described (Roger S, Potier M, Vandier C, Le Guennec J Y, Besson P. Description and role in proliferation of iberiotoxin-sensitive currents in different human mammary epithelial normal and cancerous cells. (Biochim Biophys Acta 2004; 1667:190-9.). Signals were captured using 1322-A Digidata converter (Axon Instruments, USA) and pClamp 8.1 software (Axon Instruments, USA). The analysis were performed using Clampfit 8.1 and Origin 7.0 softwares (Microcal Software, Northampton, Mass., USA).
(§3) The physiological saline solution (PSS) in mM: NaCl 140, MgCl2 1, KCl 4, CaCl2 2, D-glucose 11.1, and HEPES 10, adjusted to pH 7.4 with NaOH. The pipette solution for the whole-cell recording, pCa=7 was (in mM): K-glutamate 125, KCl 20, CaCl2 0.37, MgCl2 1, Mg-ATP 1, EGTA 1, HEPES 10, adjusted to pH 7.2 with KOH. […] All drugs and chemicals were purchased from Sigma-Aldrich (St Quentin, France), except Lei-Dab7 which was a generous gift from Dr. J. M. Sabatier, UMR CNRS 6560, Marseille, France.

MDA-MB-435s cells [2] = conditions: for decrease of outward currents: FIG. 2C
Experimental: Currents were generated by stepwise 8 mV depolarizing pulses (400 ms duration; 5 sec intervals) from a constant holding potential of −70 mV up to +58 mV. Signals were filtered at 1 kHz and digitized at 10 kHz.
B, C—Current-density was obtained by dividing the averaged steady-state current elicited at +26 mV (recorded during the latest 50 ms of the pulse) by the respective cell capacitance. Membrane capacitance was calculated by integrating the capacitive current measured during a 10 mV voltage step.
as §2, §3

SK3 protein [3] = assay: Western blot of SK3 protein after siRNA transfection, MDA-MB-435s; format: cell-based, human; conditions: 24, 48, 72 h after transfection vs scrambled-siRNA, greatest effect at 72 hours
Sequence of SK3 protein (Q9UGI6 other isoform, or with tags, fused parts or gaps DUP76-80): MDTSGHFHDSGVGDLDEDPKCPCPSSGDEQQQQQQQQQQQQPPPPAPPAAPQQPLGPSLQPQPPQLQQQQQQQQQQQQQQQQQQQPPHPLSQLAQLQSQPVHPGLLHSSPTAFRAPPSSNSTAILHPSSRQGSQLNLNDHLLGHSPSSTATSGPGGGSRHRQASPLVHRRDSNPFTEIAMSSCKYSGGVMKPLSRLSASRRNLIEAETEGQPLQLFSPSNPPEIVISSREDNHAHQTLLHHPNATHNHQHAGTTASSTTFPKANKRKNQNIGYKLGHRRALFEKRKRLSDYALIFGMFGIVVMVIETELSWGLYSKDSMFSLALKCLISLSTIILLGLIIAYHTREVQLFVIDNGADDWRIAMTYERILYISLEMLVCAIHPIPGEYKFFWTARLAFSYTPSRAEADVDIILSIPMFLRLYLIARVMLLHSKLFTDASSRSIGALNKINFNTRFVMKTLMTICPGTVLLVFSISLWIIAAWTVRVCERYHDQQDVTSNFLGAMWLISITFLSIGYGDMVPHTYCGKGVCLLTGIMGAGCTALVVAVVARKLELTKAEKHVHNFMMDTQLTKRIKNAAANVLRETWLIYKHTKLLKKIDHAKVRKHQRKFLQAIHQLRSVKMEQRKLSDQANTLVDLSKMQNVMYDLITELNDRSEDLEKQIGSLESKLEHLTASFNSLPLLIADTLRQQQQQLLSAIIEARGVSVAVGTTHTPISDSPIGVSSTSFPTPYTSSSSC
Experimental: A—Top, Western blot patterns showing the silencing effect on the expression of SK3 protein—of two siRNAs designed against SK3 mRNA. Cells were transfected with siRNA-lipofectamine complexes for 24 h, 48 h and 72 h. A scrambled-siRNA was used as negative control. SiRNA oligonucleotide sequences are listed in the Materials and Methods section. Bottom, Histograms showing the inhibitory effect on […] cell migration after 24 h, 48 h and 72 h siRNA transfection with or without 10 nM apamin. Results from two separate experiments performed in triplicate are expressed as mean±S.E.M. Normalization of cell number performed as described in the legend of FIG. 1. Note that the cells have lost their sensitivity for apamin after siRNA transfection, indicating a specific effect on SK3 protein.
For Western blot experiments, proteins were electrotransferred onto polyvinylidene fluoride membranes which were incubated with antibodies directed against SK2 and SK3 proteins (1:1000) followed by incubation with a horseradish peroxidase-conjugated anti-rabbit IgG (1:5000; Tebu-Bio, France). Anti-SK2 directed against amino acids 542-559 and anti-SK3 directed against amino acids 2-21 (Sigma-Aldrich, France) were used for Western blot and immunocytochemical experiments. Anti-Actin directed against amino acids 20-33 (Sigma-Aldrich, France) was used for western blot loading control experiments. […]

MDA-MB-435s cells [4] = format: cell-based, human; conditions: FIG. 4A; for number of migrating cells after siRNA transfection: MDA-MB-435s, 24, 48, 72 h after transfection
Experimental: Cells were seeded at 40000 in a cell culture insert in DMEM with 5% FBS±drugs or [K^+] 60 mM. […] 60 mM. After 24 h, cells of the lower compartment were stained with hematoxylin (A, bottom) and counted. The normalized cell number corresponded to the ratio of total number of migrating cells in presence of drug or [K^+] 60 mM/total number of migrating cells in control experiments. […] Scale bar=10 μm for the two panels.
(§1) Cell proliferation was determined using the tetrazolium salt reduction method, as described (Roger S, Potier M, Vandier C, Le Guennec J Y, Besson P. Description and role in proliferation of iberiotoxin-sensitive currents in different human mammary epithelial normal and cancerous cells. Biochim Biophys Acta 2004; 1667:190-9.). Cells were seeded on 24-well plates and grown for 48 h. […] Cell migration was analyzed in 24-well plates receiving 8-μm pore size polyethylene terephtalate membrane cell culture inserts (Becton Dickinson, France), as described (Roger S, Potier M, Vandier C, Le Guennec J Y, Besson P. Description and role in proliferation of iberiotoxin-sensitive currents in different human mammary epithelial normal and cancerous cells. Biochim Biophys Acta 2004; 1667:190-9.).

518A2 cells = assay: Cell migration, 518A2 melanoma cells; format: cell-based; conditions: 518A2, 48 hours after transfection, FIG. 8B
Experimental: Histograms showing the effect of 10 nM apamin on cell migration (FIG. 5A). Cells were seeded at 40000 in a cell culture insert in DMEM with 5% FBS±apamin. The lower compartment of the insert contained DMEM with 10% FBS as a chemoattractant±apamin. After 24 h, cells of the lower side were stained with hematoxylin (FIG. 5B, right) and counted. The normalized cell number corresponded to the ratio of total number of migrating cells in presence of apamin/total number of migrating cells in control experiments. The apamin concentration selected has no effect on cell proliferation and viability. […] Mammary cancer MDA-MB-435s cells were used as control cell. […]
as §1, with “1667:190-9.).” for “1667:190-9.). Cells were seeded on 24-well plates and grown for 48 h.”

SK3 protein [5] = assay: Western blot of SK3 protein after siRNA transfection, 518A2; format: cell-based, human; conditions: 518A2, 48 hours after transfection vs scrambled-siRNA, FIG. 8A
Experimental: FIG. 8A—Western blot patterns showing the silencing effect on the expression of SK3 protein of two siRNAs designed against SK3 mRNA. Cells were transfected with siRNA-lipofectamine complexes for 48 h. A scrambled-siRNA was used as negative control. siRNA oligonucleotide sequences are listed in the Materials and Methods section.
For Western blot experiments, proteins were electrotransferred onto polyvinylidene fluoride membranes which were incubated with antibodies directed against SK2 and SK3 proteins (1:1000) followed by incubation with a horseradish peroxidase-conjugated anti-rabbit IgG (1:5000; Tebu-Bio, France). Anti-SK2 directed against amino acids 542-559 and anti-SK3 directed against amino acids 2-21 (Sigma-Aldrich, France) were used for Western blot and immunocytochemical experiments. Anti-Actin directed against amino acids 20-33 (Sigma-Aldrich, France) was used for western blot loading control experiments.
Two SK3 specific siRNA were designed: first set, hSK3-ex1-Sense 5′-GAAAGCGACUGAGUGACUAdTdT-3′ (sequence SEQ ID No. 5) and hSK3-ex1-Antisense 5′-UAGUCACUCAGUCGCUUCdTdT-3′, (sequence SEQ ID N 06) located in exon 1; second set, hSK3-ex3-Sense 5′-CCAUUCCUGGCGAGUACAAdTdT-3′ (sequence SEQ ID No. 7) and hSK3-ex3-Antisense 5′-UUGUACUCGCCAGGAAUGGdTdT-3′, (sequence SEQ ID No. 8) located in exon 3. […]

Sequence of SK3 (Q9UGI6 whole entry): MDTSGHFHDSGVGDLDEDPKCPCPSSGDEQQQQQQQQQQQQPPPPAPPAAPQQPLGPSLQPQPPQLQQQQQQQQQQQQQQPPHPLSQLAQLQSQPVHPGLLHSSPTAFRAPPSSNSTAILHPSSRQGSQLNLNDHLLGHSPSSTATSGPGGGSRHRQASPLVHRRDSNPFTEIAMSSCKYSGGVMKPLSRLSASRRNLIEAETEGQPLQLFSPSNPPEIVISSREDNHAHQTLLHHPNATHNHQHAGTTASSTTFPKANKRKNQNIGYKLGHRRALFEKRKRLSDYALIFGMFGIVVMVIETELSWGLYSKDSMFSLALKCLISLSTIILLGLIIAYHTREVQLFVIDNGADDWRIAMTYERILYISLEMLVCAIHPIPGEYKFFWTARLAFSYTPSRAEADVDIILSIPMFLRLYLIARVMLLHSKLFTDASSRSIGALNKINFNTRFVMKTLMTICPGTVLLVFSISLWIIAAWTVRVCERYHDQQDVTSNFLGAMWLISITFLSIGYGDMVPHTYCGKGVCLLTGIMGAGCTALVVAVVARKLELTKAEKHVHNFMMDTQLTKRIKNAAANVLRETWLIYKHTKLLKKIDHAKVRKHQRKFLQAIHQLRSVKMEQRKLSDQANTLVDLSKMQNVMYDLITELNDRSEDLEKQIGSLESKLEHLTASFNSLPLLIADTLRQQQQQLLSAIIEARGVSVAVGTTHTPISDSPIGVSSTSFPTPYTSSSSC
Sequence of SK2 (Q9H2S1 whole entry): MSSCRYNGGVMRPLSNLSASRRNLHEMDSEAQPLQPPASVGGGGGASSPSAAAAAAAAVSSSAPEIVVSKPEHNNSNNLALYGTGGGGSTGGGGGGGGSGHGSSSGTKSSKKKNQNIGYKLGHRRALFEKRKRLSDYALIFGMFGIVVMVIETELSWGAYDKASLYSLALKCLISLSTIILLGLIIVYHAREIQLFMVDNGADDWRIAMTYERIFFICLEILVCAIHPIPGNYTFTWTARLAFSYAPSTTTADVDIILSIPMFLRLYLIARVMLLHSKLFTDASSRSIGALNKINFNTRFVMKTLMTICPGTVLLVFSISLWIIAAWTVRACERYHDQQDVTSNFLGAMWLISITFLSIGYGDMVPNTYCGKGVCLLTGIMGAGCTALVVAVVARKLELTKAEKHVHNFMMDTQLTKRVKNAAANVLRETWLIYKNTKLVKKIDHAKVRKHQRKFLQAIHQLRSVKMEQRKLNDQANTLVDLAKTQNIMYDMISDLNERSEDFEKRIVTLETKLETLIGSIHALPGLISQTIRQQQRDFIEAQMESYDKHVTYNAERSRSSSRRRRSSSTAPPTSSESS

Molecule | block of SK3 channel (SK3) | effect on membrane potential (MDA-MB-435s cells [1]) | decrease of outward currents (MDA-MB-435s cells [2]) [%] | SK3 expression (Western blot) (SK3 protein [3]) | number of migrating cells after siRNA transfection (MDA-MB-435s cells [4]) | further results
CC[N+](CC)(CC)CC [TEA, tetraethylammonium] | blocks | depolarized | 50 |  |  | block of SK2 channel (SK2): blocks
ΔExon3-siRNA: siRNA against SK3 exon 3, sense 5′-CCAUUCCUGGCGAGUACAAdTdT-3′ (SEQ ID No. 7), antisense SEQ ID No. 8 (sense CCAUUCCUGGCGAGUACAADTDT; antisense UUGUACUCGCCAGGAAUGGDTDT; chemistry not fully specified) |  |  |  | marked suppression | markedly reduced | relative efficiency of the siRNAs (Western blot and migration) (MDA-MB-435s cells [4]; MDA-MB-435s): more efficient than ΔExon1-siRNA
ΔExon1-siRNA: siRNA against SK3 exon 1, sense 5′-GAAAGCGACUGAGUGACUAdTdT-3′ (SEQ ID No. 5), antisense SEQ ID No. 6 (sense GAAAGCGACUGAGUGACUADTDT; antisense UAGUCACUCAGUCGCUUCDTDT; chemistry not fully specified) |  |  |  | marked suppression | markedly reduced | number of migrating cells after siRNA transfection (518A2 cells): markedly reduced; SK3 expression (Western blot) (SK3 protein [5]): decrease
Nc1ccncc1 [4-AP, 4-aminopyridine] | blocks | depolarized | 50 |  |  | 
CC(C)C[C@@H]1NC(=O)[C@H](C)NC(=O)[C@H]([C@@H](C)O)NC(=O)[C@H](CCC(=O)O)NC(=O)[C@@H]2CCCN2C(=O)[C@H](C)NC(=O)[C@H](CCCCN)NC(=O)[C@@H]2CSSC[C@@H](C(=O)N[C@@H](CCC(N)=O)C(=O)N[C@@H](CCC(N)=O)C(=O)N[C@@H](Cc3cnc[nH]3)C(N)=O)NC(=O)[C@H](CCCNC(=N)N)NC(=O)[C@H](CCCNC(=N)N)NC(=O)[C@H](C)NC(=O)[C@H](CSSC[C@H](N)C(=O)N[C@@H](CC(N)=O)C(=O)N2)NC1=O [apamin] |  |  |  |  |  | IC50 (MDA-MB-435s cells [2]; read-out: estimated IC50 of block of outward currents, whole-cell, dose-dependent, FIG. 2B): < 0.1 nM
